Target: SGLT2 (Homo sapiens (Human), UniProt P31639)
Assay: In vitro SGLT2 inhibitory activity: 1-NBDG uptake by CHO-SGLT2 cells
Assay type: cell-based
Conditions: for IC50: CHO-SGLT2 cells, 1-NBDG uptake, read-out: IC50 inhibiting SGLT2
Protocol: The effect of the compounds on SGLT2-mediated glucose uptake was investigated by establishing an SGLT2 overexpression cell model and using the fluorescent glucose (2-deoxy-1-[(7-nitro-2,1,3-benzoxadiazol-4-yl)amino]-D-glucose, 1-NBDG) tracer method to screen out candidate compounds with SGLT2 inhibitory activity.
The humanized SGLT2 overexpression cells (CHO-SGLT2) constructed from Chinese hamster ovary (CHO) cells were cultured in 1640 medium (Gibco) containing 10% fetal bovine serum (Gibco, 10270), subcultured at a ratio of 1:3, and replaced with new culture medium 3 times every week. Fluorescence detection cell culture plates and other culture flasks were purchased from Corning Company. […] Appropriate amounts of all compounds were weighed, prepared into 100 mM stock solutions with DMSO, and stored at 4° C. in the dark.
Before the 1-NBDG uptake test, CHO-SGLT2 cells were digested and seeded in a 96-well cell culture plate with a cell number of 40,000/well. After the cells were cultured for 48 h, the medium was discarded, and 100 μl of choline buffer was added to each well. After the cells were starved at 37° C. for 30 min, the choline buffer was discarded and 100 μl of the newly prepared Na^+ sodium buffer containing […] 1-NBDG and the test compounds (Compound) was added. The solvent DMSO was used as the negative control (Control) for the test compounds.
The Na^+ sodium buffer without 1-NBDG was used as the blank control (Blank). After 1 h of culture, the incubation solution was discarded. The cells were washed with choline buffer solution 3 times, and then 50 μl of neutral lysate was added to each well to lyse the cells on ice for 10 min. The fluorescence value of each well was detected using a multi-functional microplate reader at […].
At least 3 experimental replicates were set for each compound at indicated concentrations, and the data were expressed as mean±SEM. Uptake amount of 1-NBDG by cells=fluorescence value1-NBDG-fluorescence valueBlank. Inhibition rate on uptake amount of SGLT2 glucose (%)=(uptake amountcontrol−uptake amountcompound)/uptake amountcontrol×100%. Concentration-inhibition rate curves were plotted using Graphpad Prism software, and IC50 values were calculated accordingly.

SGLT2, sequence (P31639 whole entry): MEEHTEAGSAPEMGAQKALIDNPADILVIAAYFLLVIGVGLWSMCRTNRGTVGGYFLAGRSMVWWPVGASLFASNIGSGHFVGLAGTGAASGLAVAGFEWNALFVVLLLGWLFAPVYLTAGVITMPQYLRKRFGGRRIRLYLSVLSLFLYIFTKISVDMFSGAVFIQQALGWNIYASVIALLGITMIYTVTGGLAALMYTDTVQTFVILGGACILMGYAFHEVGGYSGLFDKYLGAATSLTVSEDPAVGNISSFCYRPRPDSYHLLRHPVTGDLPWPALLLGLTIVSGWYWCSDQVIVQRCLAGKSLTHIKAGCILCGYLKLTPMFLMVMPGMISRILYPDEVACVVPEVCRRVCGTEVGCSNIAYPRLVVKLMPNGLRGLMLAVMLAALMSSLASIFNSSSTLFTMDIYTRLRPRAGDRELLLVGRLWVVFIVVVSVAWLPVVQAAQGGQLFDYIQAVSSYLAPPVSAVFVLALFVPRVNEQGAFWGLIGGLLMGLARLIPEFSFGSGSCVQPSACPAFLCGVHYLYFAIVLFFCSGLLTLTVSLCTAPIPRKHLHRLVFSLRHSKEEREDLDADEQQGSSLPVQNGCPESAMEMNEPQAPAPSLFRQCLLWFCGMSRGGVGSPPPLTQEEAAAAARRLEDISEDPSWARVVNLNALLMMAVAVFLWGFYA

## CCOc1ccc(Oc2cc([C@H]3O[C@H](CO)[C@@H](O)[C@H](O)[C@H]3O)ccc2Cl)cc1 [Compound 3, (2R,3R,4R,5S,6R)-2-[4-chloro-3-(4-ethoxyphenoxy)phenyl]-6-(hydroxymethyl)oxane-3,4,5-triol]
  IC50: 6.75 nM
Compound concentration 1 × 10^−5 mol/L
  Inhibition rate of compounds on SGLT2 (%): 96.4 ± 8.4%
Compound concentration 5 × 10^−7 mol/L
  Inhibition rate of compounds on SGLT2 (%): 78.7 ± 1.9%
Compound concentration 5 × 10^−8 mol/L
  Inhibition rate of compounds on SGLT2 (%): 71.7 ± 1.7%
Compound concentration 5 × 10^−9 mol/L
  Inhibition rate of compounds on SGLT2 (%): 42.8 ± 2.3%
Compound concentration 5 × 10^−10 mol/L
  Inhibition rate of compounds on SGLT2 (%): 8.7 ± 2.1%
Compound concentration 5 × 10^−11 mol/L
  Inhibition rate of compounds on SGLT2 (%): 3.7 ± 4.2%

## CS[C@H]1O[C@@H](c2cc3c(c(Cc4ccc5c(c4)OCCO5)c2)CCC3)[C@H](O)[C@@H](O)[C@@H]1O [Compound 5]
  IC50: 2.26 nM

## CS[C@H]1O[C@@H](c2ccc(C)c(Cc3ccc4c(c3)CCCO4)c2)[C@H](O)[C@@H](O)[C@@H]1O [Compound 8]
  IC50: 0.356 nM

## CS[C@H]1O[C@@H](c2ccc(C)c(Cc3ccc4c(c3)CC4)c2)[C@H](O)[C@@H](O)[C@@H]1O [Compound 12]
  IC50: 1.01 nM

## OC[C@H]1O[C@@H](c2ccc(F)c(Cc3ccc4c(c3)OCCO4)c2)[C@H](O)[C@@H](O)[C@@H]1O [Compound 27]
  IC50: 3.32 nM
